# Results published in patent US12692261B2, “Substituted heterocyclic compounds and therapeutic uses thereof” (Bayer Aktiengesellschaft, priority 2020, dated 2026).
# pIC50: −log10 of the molar value.
# Legend:
# [1] = target: T1, full-length human CSNK1A1 (Homo sapiens, UniProt P48729); assay: CSNK1A1 High ATP Assay (ADP-Glo, 1 mM ATP); format: biochemical; conditions: Table 3, read-out: CSNK1A1 high ATP assay IC50 [mol/l] (median);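 further: 30 min kinase reaction at 22 °C with 100 µM peptide substrate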
# T1 construct: N-terminal Glutathion-S-Transferase (GST) and full-length human CSNK1A1; purchased Life Technologies PV4174; host or cells: baculovirus infected insect cells
# T1 sequence (P48729 whole entry): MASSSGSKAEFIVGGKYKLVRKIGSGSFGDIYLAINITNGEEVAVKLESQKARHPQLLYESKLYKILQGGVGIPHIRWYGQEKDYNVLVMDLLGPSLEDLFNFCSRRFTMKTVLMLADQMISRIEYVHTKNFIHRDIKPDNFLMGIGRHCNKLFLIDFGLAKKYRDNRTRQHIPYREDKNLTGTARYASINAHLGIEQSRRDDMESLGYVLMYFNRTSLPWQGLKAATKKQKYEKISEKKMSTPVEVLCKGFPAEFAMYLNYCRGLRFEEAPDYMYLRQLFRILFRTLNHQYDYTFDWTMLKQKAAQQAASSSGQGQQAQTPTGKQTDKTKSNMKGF
# Outline: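 Kinase activity taken as ADP generated, quantified by ADP-Glo luminescence after 1 h ATP depletion and 1 h detection at 22 °C. Enzyme is GST–full-length human CSNK1A1 (insect cell-expressed), pre-bound to compound for 15 min, with phosphopeptide substrate and 1 mM ATP.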
# full-length human CSNK1D = target: T2, full-length human CSNK1D (Homo sapiens, UniProt P48730); assay: CSNK1D Assay (ADP-Glo, 1 μM ATP); format: biochemical; conditions: Table 3, read-out: CSNK1D IC50 [mol/l] (median)
# T2 construct: N-terminal Glutathion-S-Transferase (GST) and full-length human CSNK1D; purchased Life Technologies PV3665; host or cells: baculovirus infected insect cells
# T2 sequence (P48730 whole entry): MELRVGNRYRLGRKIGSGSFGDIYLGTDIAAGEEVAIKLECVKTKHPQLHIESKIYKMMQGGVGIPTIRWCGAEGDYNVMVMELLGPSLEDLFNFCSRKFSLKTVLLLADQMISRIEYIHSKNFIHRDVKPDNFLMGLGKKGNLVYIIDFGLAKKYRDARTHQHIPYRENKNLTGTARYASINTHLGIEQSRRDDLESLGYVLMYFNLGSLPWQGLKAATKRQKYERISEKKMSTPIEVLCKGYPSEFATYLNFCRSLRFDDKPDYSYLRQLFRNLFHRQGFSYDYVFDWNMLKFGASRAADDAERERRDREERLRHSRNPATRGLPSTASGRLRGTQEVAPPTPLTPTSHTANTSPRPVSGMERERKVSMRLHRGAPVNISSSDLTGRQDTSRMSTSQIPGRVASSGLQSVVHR
# Outline: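 ADP-Glo luminescence reports ADP generated by GST-fused full-length human CSNK1D (insect-cell expressed, about 0.5 ng/μL) acting on a biotinylated peptide at 1 μM ATP. Test compounds were pre-bound to enzyme 15 min at 22° C in 50 mM HEPES pH 7.5.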
Structure (SMILES),pIC50 [1],pIC50 (full-length human CSNK1D)
"O=C(Nc1cc(-c2[nH]c3c(OCC(F)(F)F)ncnc3c2-c2ccccn2)ccn1)C(CC(F)(F)F)c1ccc(F)cc1 (racemic) [Example 125, (2RS)-4,4,4-trifluoro-2-(4-fluorophenyl)-N-{4-[7-(pyridin-2-yl)-4-(2,2,2-trifluoroethoxy)-5H-pyrrolo[3,2-d]pyrimidin-6-yl]pyridin-2-yl}butanamide]",7.34,7.85
"O=C(Nc1cc(-c2[nH]c3c(C4CCCO4)cc(F)nc3c2-c2ccccn2)ccn1)C(CC(F)F)c1ccc(F)cc1 (single isomer, unassigned) [Example 118, (2R or S)-4,4-difluoro-N-(4-{5-fluoro-7-[(2R or S)-oxolan-2-yl]-3-(pyridin-2-yl)-1H-pyrrolo[3,2-b]pyridin-2-yl}pyridin-2-yl)-2-(4-fluorophenyl)butanamide]",5.18,6.90
"O=C(Nc1cc(-c2[nH]c3nccnc3c2-c2ccccn2)ccn1)C(CC(F)(F)F)c1ccc(F)cc1 (single isomer, unassigned) [Example 121, (2R or S)-4,4,4-trifluoro-2-(4-fluorophenyl)-N-{4-[7-(pyridin-2-yl)-5H-pyrrolo[2,3-b]pyrazin-6-yl]pyridin-2-yl}butanamide]",6.02,7.20
"O=C(Nc1cc(-c2[nH]c3c(OCC(F)(F)F)ncnc3c2-c2ccccn2)ccn1)C(CC(F)F)c1ccc(F)cc1 (racemic) [Example 122, (2RS)-4,4-difluoro-2-(4-fluorophenyl)-N-{4-[7-(pyridin-2-yl)-4-(2,2,2-trifluoroethoxy)-5H-pyrrolo[3,2-d]pyrimidin-6-yl]pyridin-2-yl}butanamide]",7.52,8.15
"O=C(Nc1cc(-c2[nH]c3cncnc3c2-c2ccccn2)ccn1)C(CC(F)F)c1ccc(F)cc1 (single isomer, unassigned; (-)) [Example 14, (−)-4,4-difluoro-2-(4-fluorophenyl)-N-{4-[7-(pyridin-2-yl)-5H-pyrrolo[3,2-d]pyrimidin-6-yl]pyridin-2-yl}butanamide]",5.67,7.55
"O=C(Nc1cc(-c2[nH]c3ccc(F)nc3c2-c2ccc(F)cn2)ccn1)C(CC(F)F)c1ccc(F)cc1 (single isomer, unassigned; (-)) [Example 110, (−)-4,4-difluoro-N-{4-[5-fluoro-3-(5-fluoropyridin-2-yl)-1H-pyrrolo[3,2-b]pyridin-2-yl]pyridin-2-yl}-2-(4-fluorophenyl)butanamide]",7.32,7.37
"O=C(Nc1cc(-c2[nH]c3cncnc3c2-c2ccccn2)ccn1)C(CC(F)F)c1ccc(F)cc1 (racemic) [Example 13, 4,4-difluoro-2-(4-fluorophenyl)-N-{4-[7-(pyridin-2-yl)-5H-pyrrolo[3,2-d]pyrimidin-6-yl]pyridin-2-yl}butanamide]",6.62,7.91
